We go through 3 compounds from patent EP4107145B1, “PYRAZOLE-INDOLE CONJUGATES FOR PHOTODYNAMIC TREATMENT OF CANCER AND BACTERIAL INFECTIONS” (Univerzita Palackého v Olomouci, priority 2020, dated 2021).

Each structure is given as a SMILES string.

Data set [1] relates to G361 cell line. The experiment in a line: MTT cell viability assay without irradiation (dark viability). It counts as cell-based, human. Conditions: G361, treated 24 h, no irradiation; viability similar to untreated cells. The method, then: G361 cell line (human skin melanoma) was cultivated in DMEM medium supplemented with 10% fetal bovine serum, 1% penicillin/streptomycin, 1% glutamine, at 37 °C in 5% CO2 atmosphere. Viability of cells was determined using the MTT (Sigma-Aldrich) assay in 96-well microplates (10^4 per well in 100 µl of DMEM). The test compounds were added 24 h post plating and the cells were then incubated for additional 24 h. Cells were then exposed to an irradiation in 100 µl of PBS with 5 mM glucose and incubated for further 24 h. After the experiment, 50 µl of MTT (dissolved in PBS) was added and cells were incubated for another 3 h at 37 °C and in 5 % CO2. The media was then carefully replaced with 100 µl of DMSO in order to solubilize the violet formazan crystals. The measurement of absorbance was carried out on reader Synergy HT at 570 nm and 690 nm. The cell viability of the samples was determined as a percentage of the control cell viability (100 × average of test group / average of control group). The data for the determination of EC50 was calculated using the Phototox v. 2.0 software (ZEBET). Dark viability was measured in parallel under the same conditions without irradiation. The viability of cells treated with compounds 5, 7 and 10 for 24 h without irradiation was similar to untreated cells, thus concluding that the compounds have no cytotoxicity up to 10 µM concentrations (Figure 4).
In general terms: Formazan colour is commonly taken as a measure of viable cells.

Data set [2] in a line: Absorption and fluorescence properties in water. Conditions: for λem: λex 360 nm for compound 5, 385 nm for compounds 7 and 10. The format is physicochemical. The method, then: All chemicals and solvents were purchased from commercial suppliers and used without further purification unless otherwise specified. Prior to use, N,N-dimethylformamide was stored over molecular sieves (4 Å), while toluene and dichloromethane were dried over anhydrous sodium sulfate. All reactions were performed in oven dried flasks under argon atmosphere with magnetic stirring. Reaction progress was monitored by TLC analysis on Macherey-Nagel™ ALUGRAM® Xtra SIL G/UV254 plates. TLC plates were visualized with UV light (wavelengths 254 and 365 nm) or iodine vapour. Compounds were purified by flash chromatography in a glass column (stationary phase - silicagel, high-purity grade 9385, pore size 60 Å, particle size - 230-400 mesh, supplier Sigma-Aldrich). ^1H and ^13C NMR spectra were recorded at room temperature on a Bruker Avance III 700 spectrometer (700 MHz for ^1H and 176 MHz for ^13C) in CDCl3 as solvent. FT-IR spectra were collected using ATR method on a Bruker Vertex 70v spectrometer with an integrated Platinum ATR accessory. The melting points of crystalline compounds were determined in open capillary tubes with a Buchi M-565 apparatus (temperature gradient - 2 °C/min) and are uncorrected. High-resolution mass spectrometry (HRMS) spectra were obtained in ESI mode on a Bruker MicrOTOF-Q III spectrometer. UV-Vis absorption and fluorescence spectra were registered on an Infinity M200 Pro Tecan microplate reader.
Fluorescence properties of final compounds 5, 7 and 10 were investigated in water. The excitation wavelength λex was set to 360 nm for compound 5 and to 385 nm for compounds 7 and 10. The emission maxima λem of all three compounds are located in the 475-525 nm range, which corresponds to the blue part of the visible light spectrum.
On the other hand, as expected an additional double bond in compound 10, compared to compound 7, caused both a bathochromic shift of the emission maxima. […] Table 2. Absorption and fluorescence characteristics of compounds 5, 7 and 10 in water.

The subject of a further data set is irradiated G361 cells. The experiment in a line: Photodynamic treatment (LED 414 nm) with MTT cell viability assay. It counts as cell-based. Conditions: Homo sapiens, G-361, light or radiation study. On the procedure:
G361 cell line (human skin melanoma) was cultivated in DMEM medium supplemented with 10% fetal bovine serum, 1% penicillin/streptomycin, 1% glutamine, at 37 °C in 5% CO2 atmosphere. Viability of cells was determined using the MTT (Sigma-Aldrich) assay in 96-well microplates (10^4 per well in 100 µl of DMEM). The test compounds were added 24 h post plating and the cells were then incubated for additional 24 h. Cells were then exposed to an irradiation in 100 µl of PBS with 5 mM glucose and incubated for further 24 h. After the experiment, 50 µl of MTT (dissolved in PBS) was added and cells were incubated for another 3 h at 37 °C and in 5 % CO2. The media was then carefully replaced with 100 µl of DMSO in order to solubilize the violet formazan crystals. The measurement of absorbance was carried out on reader Synergy HT at 570 nm and 690 nm. The cell viability of the samples was determined as a percentage of the control cell viability (100 × average of test group / average of control group). The data for the determination of EC50 was calculated using the Phototox v. 2.0 software (ZEBET). Dark viability was measured in parallel under the same conditions without irradiation. An in-house constructed LED based light source specifically designed for the irradiation of 96-well microplates and Petri dishes (Tomecka et al., CZ302829B6, 2006) was used; a maximal wavelength emission of 414 nm and light intensity set to 20 mW/cm^2. For photodynamic treatments, cultivation medium was aspirated and replaced by PBS supplemented with 5 mM glucose. Immediately after irradiation, PBS was removed and full DMEM was added to cells. The cultivation lasted for subsequent 24 h. All assays were performed in triplicates and repeated independently three times. In an initial experiment, G361 cells were treated with the tested compounds for 24 h and then exposed to light (LED source, 414 nm) with a total irradiation dose of 10 J/cm^2. Viability of cells was quantified 24 h after the irradiation by an MTT assay (Table 3). Subsequently, G361 cells treated with compound 7 were also exposed to total irradiation doses of 1 and 50 J/cm^2. Table 3. EC50 of compounds 5, 7 and 10 in irradiated G361 cells (10 J/cm2).

For data set [3], the system named is G361 cell line. Briefly: Reactive oxygen species (ROS) production, CM-H2DCFDA fluorescence. It counts as cell-based, human. Conditions: G361, 0.052 µM, irradiation of 50 J/cm2 (414 nm). The method, then:
ROS was quantified using a CM-H2DCFDA (Invitrogen) solution (10 µl 10 µM DCF + 1 ml PBS) and a microplate reader Synergy HT. Right after adding 50 µl of DCF solution, 25 min incubation and irradiation, the ROS production was determined by measuring fluorescence using Synergy HT reader. An excitation wavelength of 485 nm and an emission wavelength of 548 nm were used.

Data set [4] relates to Escherichia coli (DH5alpha). The experiment in a line: Antimicrobial activity with light irradiation, colony counting. It counts as cell-based. To be noted: in combination with blue light irradiation (414 nm), Fig. 6. The method, then:
Antimicrobial activity was tested on Escherichia coli (DH5alpha).The cells were grown aerobically at 37°C in LB medium. When reached exponential growth phase, the suspension was diluted with fresh LB and supplemented with test compounds or with diluted DMSO (as a control) and seeded on Petri dishes with agar media. After 5 hours the plates were exposed to light from a light emitting diode source, a maximal wavelength emission of 414 nm, light intensity set to 20 mW/cm^2 (M. Tomecka, et al., CZ302829B6, 2006). The control samples for dark toxicity were not exposed to the light. After irradiation the plates were in the dark incubator at 37 °C for 16 h and then the colonies were counted.

Data set [5] deals with histone H2A.X phosphorylation at Ser-139. Briefly: DNA damage by immunoblotting of histone H2A.X phosphorylation. The format is cell-based, human. Conditions: G361, treated 24 h. The method, then: After the treatment, cell lysates were prepared in RIPA buffer, then proteins were separated on SDS-polyacrylamide gels and electroblotted onto nitrocellulose membranes. After blocking, overnight incubation with specific primary antibodies and incubation with peroxidase-conjugated secondary antibodies, the peroxidase activity was detected with SuperSignal West Pico reagents (Thermo Scientific) using a CCD camera LAS-4000 (Fujifilm). All primary antibodies were diluted in PBS containing 5% powdered milk and 0.1% Tween 20. The specific antibodies were purchased from Cell Signaling (anti-PARP, clone 46D11; HRP-linked rabbit anti-mouse immunoglobulin), Sigma Aldrich (anti-α-tubulin, clone DM1A), Millipore (anti-phospho-histone H2A.X, Ser139, clone JBW301). To independently confirm DNA damage caused by a combination of compound 7 and irradiation in G361 cells, phosphorylation of histone H2A.X at Ser-139 (yH2A.X) was evaluated using immunoblotting analysis (Figure 5). Increased level of yH2A.X is a well-accepted marker of DNA damage. The cells were treated with different doses of compound 7 for 24 h, then either kept in dark or exposed to light with a total irradiation dose of 1, 10 or 50 J/cm^2 and cultivated for subsequent 24 h. After this period, the cells were harvested and analyzed by immunoblotting.

Data set [6] deals with G361 cells. Briefly: Comet assay (DNA fragmentation). It counts as cell-based, human. To be noted: irradiated with 50 J/cm2. On the procedure: Microscope slides were pre-coated with 1% HMP agarose (Qbiogene) dissolved in distilled water. After stiffening, two 1% agarose spots (dissolved in PBS) were made and overlayed with a cover slip. Treated or control G361 cells were trypsinized, rinsed by DMEM and then the mixture of 25 µl of cell suspension and 85 µl of 1% LMP agarose (dissolved in PBS) was added to the microscope slides with agarose gel. The microscope slides were immersed in a lysis buffer with 1% Triton X for 1 h and then placed in an electrophoretic tank and dipped into a cool electrophoresis solution for 40 min. After the electrophoresis (20 V, 350 mA, 20 min), the microscopic slides were immersed in a neutralisation buffer (10 min twice). The samples were then stained by SYBR Green (Invitrogen) for 15 min and scored by the SW Comet Score (TriTek Corp.). In order to determine the extent of DNA fragmentation caused by a combination of compound 7 and irradiation in G361 cells, comet assay was performed (Figure 4). The cells were divided into four groups according to degree of DNA fragmentation: 0-10%, 11-30%, 31-50% and 50-100%. […] Table 5. Degree of DNA fragmentation in G361 cell line treated by compound 7 at 0.052 µM and irradiated with 50 J/cm2.

For data set [7], the system named is G361 cells. The experiment in a line: Mitochondrial membrane potential change assay (JC-1). The format is cell-based, human. To be noted: G361, 0.052 µM, irradiated with 50 J/cm^2 (414 nm). The method, then: Mitochondrial membrane potential change was monitored by the fluorescent dye JC-1. After 24 h incubation the cells were washed by PBS. Then 50 µl of a JC-1 solution (Sigma-Aldrich) was added (5 mg/ml in DMSO + 5 ml PBS) and cells were incubated at 37 °C and in 5 % CO2 for 20 min. After incubation the cells were washed by PBS twice. The results were expressed as the ratio of the green fluorescence (excitation wavelength - 485 nm, emission wavelength - 548 nm) and red fluorescence (excitation wavelength - 520 nm, emission wavelength - 590 nm) retained within the cells. JC fluorescence was measured using Synergy HT reader.

[8] abbreviates: 24 h, G361, 24 h treatment, 414 nm, total irradiation dose 10 J/cm2, MTT 24 h after irradiation.

Regarding `CCCCCCOc1nn(-c2ccccc2)cc1C#Cc1ccc2c(c1)C(C)(C)C(c1ccccc1)=N2` [Compound 5, 5-{[3-(Hexyloxy)-1-phenyl-1H-pyrazol-4-yl]ethynyl}-3,3-dimethyl-2-phenyl-3H-indole], the “cytotoxicity without irradiation (dark viability)” value (“cytotoxicity without irradiation” below) with G361 cell line [1] was more than 10 µM. Besides, in data set [2], the λabs was 355 nm and the λem amounted to 475 nm. In addition, the EC50 in the data set on irradiated G361 cells (setting [8]) was found to be 6.213 ± 0.038 µM.

Consider `CCCCCCOc1nn(-c2ccccc2)cc1/C=C/c1ccc2c(c1)C(C)(C)C(c1ccccc1)=N2` [Compound 7, 5-{(E)-2-[3-(Hexyloxy)-1-phenyl-1H-pyrazol-4-yl]ethenyl}-3,3-dimethyl-2-phenyl-3H-indole], for which the “cytotoxicity without irradiation” value in the data set with G361 cell line [1] is recorded as more than 10 µM. In addition, the “ROS production increase in comparison to control cells” value in the data set on G361 cell line [3] worked out at 30%. In addition, the antibacterial effect result in data set [4] is recorded as “antibacterial effect”. Moreover, the “H2A.X phosphorylation (yH2A.X)” value in data set [5] (irradiation dose 1 J/cm2 (414 nm)) is on record as “faint yH2A.X signal”; in data set [5] (irradiation dose 10 J/cm2 (414 nm)), “massive increase of yH2A.X”; in data set [5] (irradiation dose 50 J/cm2 (414 nm)), “massive increase of yH2A.X”; in data set [5] (kept in dark) it was “did not show any H2A.X phosphorylation”. In the data set on G361 cells [6] (G361, 0.052 µM), the “DNA fragmentation in comparison with untreated control cells” value is given as “significant DNA fragmentation”. Also, the “relative number of cells, degree of DNA fragmentation 0-10 %” value in the data set on G361 cells [6] (G361, treated, 0.052 µM) is on record as 62.83 ± 2.72%. The “relative number of cells, degree of DNA fragmentation 11-30 %” value with G361 cells [6] (G361, treated, 0.052 µM) came to 30.73 ± 4.07%. Moreover, the “relative number of cells, degree of DNA fragmentation 31-50 %” value in the data set on G361 cells [6] (G361, treated, 0.052 µM) was found to be 4.84 ± 0.65%. Moreover, the “relative number of cells, degree of DNA fragmentation 51-100 %” value with G361 cells [6] (G361, treated, 0.052 µM) was determined as 1.6 ± 1.59%. Moreover, the λabs in data set [2] is on record as 380 nm. Besides, the λem in data set [2] is 495 nm. For the same compound, the EC50 in the data set with irradiated G361 cells (setting [8]) was determined as 0.262 ± 0.002 µM; in the data set on irradiated G361 cells (G361, 414 nm, total irradiation dose 1 J/cm^2), 3.08 ± 0.155 µM; with irradiated G361 cells (G361, 414 nm, total irradiation dose 50 J/cm^2), 0.052 µM. Further, the “JC-1 polymer aggregation within mitochondria (mitochondrial membrane potential)” value in the data set with G361 cells [7] is recorded as “decrease in JC-1 polymer aggregation within mitochondria”.

For the compound `CCCCCCOc1nn(-c2ccccc2)cc1/C=C/C=C/c1ccc2c(c1)C(C)(C)C(c1ccccc1)=N2` [Compound 10, 5-{(1E, 3E)-4-[3-(Hexyloxy)-1-phenyl-1H-pyrazol-4-yl]buta-1,3-dien-1-yl}-3,3-dimethyl-2-phenyl-3H-indole], in the data set on G361 cell line [1], the “cytotoxicity without irradiation” value is reported as more than 10 µM. Moreover, in data set [2], the λabs is listed as 380 nm and the λem is on record as 525 nm. For the same compound, the EC50 in the data set on irradiated G361 cells (setting [8]) was 2.06 ± 0.082 µM.

Broadly, the EC50 is the concentration that produces a half-maximal response.
